Measurements published in ChEMBL document CHEMBL4706739, “Novel Heterobicyclic Carboxamides for Treating Eye Diseases” (ACS Med Chem Lett, 2021).

Target: Rho-associated protein kinase 2 (Homo sapiens, UniProt O75116)
Test: Inhibition of ROCK2 (unknown origin) using KRRRLSSLRA as substrate incubated for 75 mins in presence of ATP and DTT by Kinase-Glo luminescent assay

Chain of Rho-associated protein kinase 2 (O75116 whole entry): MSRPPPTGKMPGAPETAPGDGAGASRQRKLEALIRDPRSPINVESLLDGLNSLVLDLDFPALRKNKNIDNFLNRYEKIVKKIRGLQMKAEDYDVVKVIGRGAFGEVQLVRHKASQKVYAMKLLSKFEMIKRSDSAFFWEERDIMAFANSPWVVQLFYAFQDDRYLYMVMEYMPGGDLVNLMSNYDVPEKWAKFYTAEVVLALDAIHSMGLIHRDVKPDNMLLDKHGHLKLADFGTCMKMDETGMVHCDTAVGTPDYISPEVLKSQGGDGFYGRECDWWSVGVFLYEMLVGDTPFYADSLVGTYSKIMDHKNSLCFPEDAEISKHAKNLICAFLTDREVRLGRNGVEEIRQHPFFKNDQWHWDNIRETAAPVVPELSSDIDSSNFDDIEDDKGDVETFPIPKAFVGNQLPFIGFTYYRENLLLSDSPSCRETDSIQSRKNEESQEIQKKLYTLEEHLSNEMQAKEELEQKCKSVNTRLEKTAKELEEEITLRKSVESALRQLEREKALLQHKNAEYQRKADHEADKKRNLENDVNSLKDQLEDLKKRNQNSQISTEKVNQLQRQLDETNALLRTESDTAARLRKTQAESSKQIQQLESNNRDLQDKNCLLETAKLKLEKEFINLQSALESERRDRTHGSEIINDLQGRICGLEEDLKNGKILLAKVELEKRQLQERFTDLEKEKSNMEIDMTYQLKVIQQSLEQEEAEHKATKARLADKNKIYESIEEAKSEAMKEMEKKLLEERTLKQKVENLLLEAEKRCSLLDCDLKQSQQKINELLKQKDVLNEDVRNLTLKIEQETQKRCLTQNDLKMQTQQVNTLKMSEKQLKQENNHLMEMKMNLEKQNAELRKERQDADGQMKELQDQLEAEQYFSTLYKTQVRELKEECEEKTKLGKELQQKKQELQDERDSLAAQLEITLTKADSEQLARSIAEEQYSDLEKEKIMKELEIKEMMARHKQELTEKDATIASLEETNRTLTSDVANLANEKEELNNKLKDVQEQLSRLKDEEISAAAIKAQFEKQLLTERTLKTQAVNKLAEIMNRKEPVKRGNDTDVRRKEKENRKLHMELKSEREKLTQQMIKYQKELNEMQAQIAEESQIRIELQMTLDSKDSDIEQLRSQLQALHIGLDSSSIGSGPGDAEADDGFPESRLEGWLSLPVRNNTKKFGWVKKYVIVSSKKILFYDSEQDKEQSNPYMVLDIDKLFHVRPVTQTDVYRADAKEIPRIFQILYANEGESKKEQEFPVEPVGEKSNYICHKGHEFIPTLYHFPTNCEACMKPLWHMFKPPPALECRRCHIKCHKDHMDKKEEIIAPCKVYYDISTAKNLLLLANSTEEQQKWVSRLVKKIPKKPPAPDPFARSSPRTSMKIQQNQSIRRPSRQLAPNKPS

Compound	IC50
O=C(Nc1nc2ccncc2s1)[C@@H]1C[C@H]1c1ccc(S(=O)(=O)Nc2ccccn2)cc1	6 nM
O=C(Nc1ccc2cnccc2n1)[C@@H]1C[C@H]1c1ccc(S(=O)(=O)Nc2ccccn2)cc1	6 nM
